Legend:
ACE [1] = test system: ACE; design: method as in earlier work; conditions: ref 25 (Hyun et al.); cited from earlier work
ACE [2] = target: T1, ACE (Oryctolagus cuniculus, UniProt P12822); assay: ACE inhibitory activity assay with FAPGG as substrate; conditions: for Inhibitory effect on ACE (in words): structure–activity discussion of Table 2
T1 sequence (P12822 34-1310): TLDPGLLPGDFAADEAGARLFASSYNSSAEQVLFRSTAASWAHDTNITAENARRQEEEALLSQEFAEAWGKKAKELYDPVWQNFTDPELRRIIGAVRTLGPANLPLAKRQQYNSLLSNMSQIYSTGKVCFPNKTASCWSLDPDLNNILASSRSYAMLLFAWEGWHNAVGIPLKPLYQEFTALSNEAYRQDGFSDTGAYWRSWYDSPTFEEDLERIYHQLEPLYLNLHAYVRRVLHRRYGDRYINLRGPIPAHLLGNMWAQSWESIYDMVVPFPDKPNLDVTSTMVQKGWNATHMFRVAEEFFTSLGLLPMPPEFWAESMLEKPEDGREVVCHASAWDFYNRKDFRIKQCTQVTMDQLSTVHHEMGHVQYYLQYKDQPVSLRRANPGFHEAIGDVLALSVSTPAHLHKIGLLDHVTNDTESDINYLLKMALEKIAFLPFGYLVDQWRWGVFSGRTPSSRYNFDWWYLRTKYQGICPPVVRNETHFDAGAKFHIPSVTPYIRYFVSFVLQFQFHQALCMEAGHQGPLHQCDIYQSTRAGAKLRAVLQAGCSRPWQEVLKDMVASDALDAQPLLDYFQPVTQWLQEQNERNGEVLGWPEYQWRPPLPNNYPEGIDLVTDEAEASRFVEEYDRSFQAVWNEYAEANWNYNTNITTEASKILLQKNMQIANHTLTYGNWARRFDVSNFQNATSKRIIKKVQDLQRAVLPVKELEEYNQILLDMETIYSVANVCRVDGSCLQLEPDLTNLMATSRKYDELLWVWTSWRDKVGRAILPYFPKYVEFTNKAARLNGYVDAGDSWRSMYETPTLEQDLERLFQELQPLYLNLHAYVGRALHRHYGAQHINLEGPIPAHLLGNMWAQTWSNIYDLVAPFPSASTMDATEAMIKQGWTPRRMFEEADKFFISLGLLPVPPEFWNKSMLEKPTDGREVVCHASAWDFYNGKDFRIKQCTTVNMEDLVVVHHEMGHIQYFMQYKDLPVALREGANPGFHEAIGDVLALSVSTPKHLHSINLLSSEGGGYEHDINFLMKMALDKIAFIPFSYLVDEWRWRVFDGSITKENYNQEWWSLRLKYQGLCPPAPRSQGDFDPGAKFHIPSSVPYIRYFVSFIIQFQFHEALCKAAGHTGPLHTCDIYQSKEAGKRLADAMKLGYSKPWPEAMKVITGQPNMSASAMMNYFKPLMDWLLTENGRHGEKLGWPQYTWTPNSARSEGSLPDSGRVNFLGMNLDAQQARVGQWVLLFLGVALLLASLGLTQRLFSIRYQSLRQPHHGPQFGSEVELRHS
Description: The ACE inhibitory activity of 18 compounds was conducted according to Hyun et al. [8] and modified to use FAPGG as the substrate. In brief, FAPGG (0.5 mM) and various concentrations of the samples were completely dissolved in 50 mM Tris–HCl buffer (pH 7.5).

ACE [3] = target: T1, ACE; assay: Enzyme kinetics of ACE inhibition (Lineweaver–Burk and secondary plots); assay type: biochemical, rabbit; design: ACE (1 Unit, rabbit lung); purchased Sigma Chemical Company (St Louis, MO, USA); host or cells: rabbit lung (tissue-derived); conditions: for Type of Inhibition: Lineweaver–Burk plot and secondary plot, FAPGG 0.1–0.5 mM; for Ki: from secondary plot of slope (Km,app/Vmax,app) versus inhibitor
Description: All chemicals and solvents used for column chromatography were of reagent grade and purchased from commercial sources, unless otherwise stated.
To determine the inhibition mechanisms, ACE inhibition was evaluated by monitoring the effects of different concentrations of substrate […]. The reaction mixture consisted of different concentrations of FAPGG (0.1–0.5 mM), as the substrate, and ACE in 50 mM Tris–HCl buffer. Several concentrations of each sample were added to the reaction mixture. The tested concentrations of coumarins are as follows: 12 (0, 2.5, 5, and 10 µM); 13 (0, 2.5, 5, and 10 µM); 15 (0, 1.28, 2.56, and 5.12 µM). Inhibition constants (Ki) were determined by interpretation of the secondary plots from Lineweaver–Burk plot.

Row | SMILES | IC50 (ACE [2]) [µM] | also measured
1 | CC(C)(O[C@@H]1O[C@H](CO)[C@@H](O)[C@H](O)[C@H]1O)[C@H]1Cc2cc3ccc(=O)oc3cc2O1 [Compound 1, nodakenin] | 112.5 ± 0.71 | ACE inhibitory activity (in words) (ACE [1]): promising ACE inhibitory activity
2 | CC(C)(O)[C@H]1Cc2cc3ccc(=O)oc3cc2O1 [Compound 2, nodakenetin] | 102.3 ± 0.29 | 
3 | CC(C)(OC1OC(CO)C(O)C(O)C1O)C1Cc2cc3ccc(=O)oc3c(O)c2O1 (stereo not drawn) [Compound 3, isorutarine] | 68.36 ± 0.27 | 
4 | O=c1ccc2ccc(O)cc2o1 [Compound 4, umbelliferone] |  | ACE inhibitory activity (in words) (ACE [1]): promising ACE inhibitory activity
5 | O=C(O)c1cc2ccc(=O)oc2cc1O [Compound 5, umbelliferone 6-carboxylic acid] | 156.1 ± 0.41 | ACE inhibitory activity (in words) (ACE [1]): promising ACE inhibitory activity; Inhibitory effect on ACE (in words) (ACE [2]): moderate inhibitory effects
6 | O=C(O)c1ccc(O)cc1 [Compound 6, para-hydroxy benzoic acid] | 492.4 ± 0.89 | 
7 | CC(C)c1cc2cc3ccc(=O)oc3cc2o1 [Compound 8, 2′-isopropyl psoralene] | 311.1 ± 0.33 | Inhibitory effect on ACE (in words) (ACE [2]): weak activity
8 | C/C=C(\C)C(=O)O[C@@H]1c2c(ccc3ccc(=O)oc23)OC(C)(C)[C@@H]1OC(C)=O [Compound 9, 3′(R)-O-acetyl-4′(S)-O-tigloylkhellactone] | 89.36 ± 0.38 | 
9 | C/C=C(/C)C(=O)O[C@@H]1c2c(ccc3ccc(=O)oc23)OC(C)(C)[C@@H]1OC(C)=O [Compound 10, cis-3′-acetyl-4′-angeloylkhellactone] | 71.48 ± 0.47 | 
10 | CC1(C)Oc2cc3oc(=O)ccc3cc2C[C@@H]1O [Compound 11, decursinol] | 18.3 ± 0.61 | 

Second part, led by results:

Row | IC50 (ACE [2]) [µM] | SMILES | also measured
11 | 9.41 ± 0.69 | C/C=C(/C)C(=O)O[C@H]1[C@H](O)c2cc3ccc(=O)oc3cc2OC1(C)C [Compound 12, 4′-hydroxy Pd-C-III] | Type of Inhibition (ACE [3]): competitive inhibition; Ki (ACE [3]): 1.98 µM
12 | 6.75 ± 0.43 | CC(C)=CC(=O)O[C@H]1[C@H](O)c2cc3ccc(=O)oc3cc2OC1(C)C [Compound 13, Pd-C-I] | Type of Inhibition (ACE [3]): competitive inhibition; Ki (ACE [3]): 2.35 µM
13 | 20 ± 0.79 | CC(C)=CC(=O)O[C@@H]1c2cc3ccc(=O)oc3cc2OC(C)(C)[C@H]1OC(=O)C=C(C)C [Compound 14, decursidin] | 
14 | 4.68 ± 0.22 | CC1(C)Oc2cc3oc(=O)ccc3cc2[C@@H](O)[C@@H]1O [Compound 15, (+)-trans-decursidinol] | Type of Inhibition (ACE [3]): competitive inhibition; Ki (ACE [3]): 0.59 µM
15 | 12.4 ± 0.27 | CC(C)=CC(=O)O[C@@H]1c2cc3ccc(=O)oc3cc2OC(C)(C)[C@H]1O [Compound 16, Pd-C-II] | 
16 | 15.2 ± 0.39 | C/C=C(/C)C(=O)O[C@H]1[C@H](OC(C)=O)c2cc3ccc(=O)oc3cc2OC1(C)C [Compound 17, Pd-C-III] | 
17 | 16 ± 0.92 | CO[C@@H]1c2cc3ccc(=O)oc3cc2OC(C)(C)[C@H]1OC(=O)C=C(C)C [Compound 18, 4′-methoxy Pd-C-I] | 
